Results: patent US11230525B2, “Organic sulfur compound, method for preparing same, and pharmaceutical composition for preventing or treating cancer or an inflammatory disease, containing same as active ingredient” (SOOKMYUNG WOMENS UNIVERSITY INDUSTRY-ACADEMIC COOPERATION …, priority 2016, dated 2022)
Like-named read-outs stand apart in the source and are kept apart here.

Columns and labels:
[1] = test system: PC-3 cells, human prostate cancer cells; experiment: Anticancer activity in prostate cancer xenograft model; type: in vivo, mice; details: for tumor size / cancer proliferation (FIGS. 2, 3): 50 mg/kg (SAHA 100 mg/kg) once a day for 16 days, compared with the non-treated group
Procedure: Particularly, 9×10^6 PC-3 cells, human prostate cancer cells, were inoculated subcutaneously to the right side of female BALB/c nu/nu mice at 5 weeks of age (Nara Biotech, Seoul, Republic of Korea).
When the tumor size reached 40-60 mm^3, the mice were randomly grouped (4 mice per group), which were the non-treated group (10% dimethylacetamide, 10% tween 80 and 80% distilled water), the groups treated with the compounds of comparative examples 1 and 2 (Ajoene, 50 mg/kg), the groups treated with the compounds of examples 18 and 32 (50 mg/kg), and the group treated with the positive control SAHA (Vorinostat, 100 mg/kg). The treatment was performed once a day for 16 days in total. During the treatment, the tumor size was measured with a vernier caliper, followed by evaluation according to the following formula: length (mm)×width (mm)×height (mm)/2. The weights were measured regularly.
Upon completion of the treatment (16 days later), the mice were sacrificed and the tumor weights were measured. All the experiments were performed according to the experiment protocol approved by Institutional Animal care and Use Committee (IACUC), Korea Research Institute of Bioscience and Biotechnology (KRIBB).

HDAC 8 = molecular target: T1, HDAC 8 (Homo sapiens, UniProt Q9BY41); experiment: HDAC enzyme fluorescence assay, HDAC 8; type: biochemical; set-up: Inhibitory activity (%) HDAC 8: concentration or dose not given beside the values; details: for Inhibitory activity (%) HDAC 8: (HDAC inhibitory activity of example compound/HDAC inhibitory activity of SAHA) × 100
T1 sequence (Q9BY41 1-377): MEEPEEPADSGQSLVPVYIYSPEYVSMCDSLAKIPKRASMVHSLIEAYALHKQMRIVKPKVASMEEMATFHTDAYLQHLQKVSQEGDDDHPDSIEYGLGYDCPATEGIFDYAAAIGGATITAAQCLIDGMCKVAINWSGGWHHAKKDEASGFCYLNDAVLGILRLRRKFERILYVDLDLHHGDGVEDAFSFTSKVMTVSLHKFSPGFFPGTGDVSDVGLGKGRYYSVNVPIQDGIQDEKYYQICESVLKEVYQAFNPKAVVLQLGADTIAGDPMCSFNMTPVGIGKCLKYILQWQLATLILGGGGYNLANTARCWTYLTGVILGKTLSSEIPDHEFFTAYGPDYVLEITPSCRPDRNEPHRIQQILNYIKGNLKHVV
Outline: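 Recombinant HDAC8 preincubated 10 min with compound in 25 mM HEPES pH 8.0, 137 mM NaCl, 1 mM MgCl2, 2.7 mM KCl, then Boc-Lys(acetyl)-AMC added at 37° C (level and time set per isoform). Trypsin development 20 min at room temperature, fluorescence 380/460 nm; activity expressed as percent relative to SAHA reference.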

HDAC 6 = molecular target: T2, HDAC 6 (Homo sapiens, UniProt Q9UBN7); experiment: HDAC enzyme fluorescence assay, HDAC 6; type: biochemical; details: recombinant HDAC enzyme, Boc-Lys(acetyl)-AMC
T2 sequence (Q9UBN7 1-1215): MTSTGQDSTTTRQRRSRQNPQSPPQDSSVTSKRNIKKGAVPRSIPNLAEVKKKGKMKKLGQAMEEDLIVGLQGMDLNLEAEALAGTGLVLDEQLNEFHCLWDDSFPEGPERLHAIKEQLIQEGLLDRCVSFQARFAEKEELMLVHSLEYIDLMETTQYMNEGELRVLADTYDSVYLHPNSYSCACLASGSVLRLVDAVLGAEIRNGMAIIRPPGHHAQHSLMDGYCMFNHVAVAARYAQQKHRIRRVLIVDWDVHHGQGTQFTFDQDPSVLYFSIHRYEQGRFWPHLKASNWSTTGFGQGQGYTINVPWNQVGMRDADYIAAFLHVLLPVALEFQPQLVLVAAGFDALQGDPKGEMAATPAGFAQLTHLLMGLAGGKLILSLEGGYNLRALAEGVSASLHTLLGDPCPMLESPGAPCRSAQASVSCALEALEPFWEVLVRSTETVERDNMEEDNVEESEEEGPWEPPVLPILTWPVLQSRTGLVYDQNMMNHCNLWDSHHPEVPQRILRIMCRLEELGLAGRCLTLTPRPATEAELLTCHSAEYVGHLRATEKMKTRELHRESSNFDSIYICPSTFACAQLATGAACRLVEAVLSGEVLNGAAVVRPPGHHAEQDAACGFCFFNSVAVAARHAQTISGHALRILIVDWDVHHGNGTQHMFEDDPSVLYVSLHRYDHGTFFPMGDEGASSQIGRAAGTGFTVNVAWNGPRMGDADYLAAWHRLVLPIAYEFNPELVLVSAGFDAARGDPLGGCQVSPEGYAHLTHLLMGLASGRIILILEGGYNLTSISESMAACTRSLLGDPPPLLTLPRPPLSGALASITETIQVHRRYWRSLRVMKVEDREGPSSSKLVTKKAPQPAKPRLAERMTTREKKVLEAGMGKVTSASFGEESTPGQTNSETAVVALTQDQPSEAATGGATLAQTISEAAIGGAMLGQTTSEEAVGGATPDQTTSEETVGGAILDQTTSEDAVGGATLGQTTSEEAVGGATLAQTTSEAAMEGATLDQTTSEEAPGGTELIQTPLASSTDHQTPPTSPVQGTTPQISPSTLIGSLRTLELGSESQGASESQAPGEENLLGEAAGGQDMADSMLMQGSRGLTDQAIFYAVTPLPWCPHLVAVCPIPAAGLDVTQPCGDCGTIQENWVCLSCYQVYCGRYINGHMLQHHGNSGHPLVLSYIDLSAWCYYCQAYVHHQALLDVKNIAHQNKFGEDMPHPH
Procedure: Particularly, HDAC enzyme analysis was performed based on a uniform fluorescence emission assay. First, the compounds of examples of the present invention or comparative example 1 were diluted at different concentrations, which were treated to the analysis buffer containing 25 mM HEPES (pH 8.0), 137 mM NaCl, 1 mM MgCl2 and 2.7 mM KCL, followed by culture of the recombinant HDAC enzyme. 10 minutes later, Boc-Lys(acetyl)-AMC, the fluorescence inducing substrate, was added thereto, followed by further culture at 37° C. At this time, the concentration of the fluorescence inducing substrate and the culture time were adjusted according to the isotypes of the HDAC enzyme. The reaction was terminated by treating trypsin at room temperature for 20 minutes. The fluorescence intensity was measured using a fluorescence analyzer at an excitation wavelength of 380 nm and an emission wavelength of 460 nm, respectively. The inhibition rate was calculated from the measured fluorescence intensity of each well with comparing to that of the control well. IC50 of the compound was calculated by analyzing the dose-reaction inhibition curve.

Row | Structure (SMILES) | tumor size / cancer proliferation (FIGS. 2, 3) [1] | tumor weight (FIG. 4) ([1]; 50 mg/kg once a day, tumor extracted after 16 days) | Inhibitory activity (%) HDAC 8 (HDAC 8) [%] | IC50 (HDAC 8; read-out: IC50 against HDAC 8) [nM] | IC50 (HDAC 6) [nM] | IC50 (HDAC 8; recombinant HDAC enzyme, Boc-Lys(acetyl)-AMC, read-out: IC50 HDAC 8) [nM]
1 | CCCSS/C=C\C[S+]([O-])c1cccc(OC)c1 (stereo not drawn) [Example 18, (Z)-1-(3-(3-methoxyphenylsulfinyl)prop-1-enyl)-2-propyldisulfane] | inhibit cancer proliferation similarly to the positive control SAHA | lighter than the tumor weight in the non-treated group | 147.2 | 35 | 1100 | 
2 | COc1ccc([S+]([O-])C/C=C\SSCc2ccccc2)cc1 (stereo not drawn) [Example 32, (Z)-1-benzyl-2-(3-(4-methoxyphenylsulfinyl)prop-1-enyl)disulfane] | cancer proliferation was inhibited |  | 150.4 |  | 550 | 37
